From patent US9944630B1, “Dithiolane carbonate monomers and polymers thereof” (The Board of Trustees of the Leland Stanford Junior …, priority 2014, dated 2018)

Assay: Loading of curcumin to polymeric micelles, UV-vis spectroscopy
Format: physicochemical
Experimental: The solution was added dropwise to 3 mL deionized water under stirring at room temperature. The solution was stirred for another 30 min and then dialyzed against deionized water for 24 h (MW cutoff=3500). The solution inside dialysis tubing was collected.

effective concentration of curcumin dispersed in micelle solution (copolymer 1 micelle solution): 187 µg/mL
Structure (SMILES): COc1cc(/C=C/C(=O)CC(=O)/C=C/c2ccc(O)c(OC)c2)ccc1O [curcumin, Curcumin]
protection from hydrolysis (in hydrophobic micellar cores): effectively protect curcumin from hydrolysis
